Patent US9914983B2, “Apoptosis-inducing agent” (Nitto Denko Corporation, priority 2012, dated 2018)

Assays:
Akt2 = Akt2 (Homo sapiens, UniProt P31751); conditions: known from literature (Barnett 2005, Lindsley 2005, Zhao 2005); cited from earlier work
Akt1 = Akt1 (Homo sapiens, UniProt P31749); conditions: known from literature (Barnett 2005, Lindsley 2005, Zhao 2005); cited from earlier work
Akt3 = Akt3 (Homo sapiens, UniProt Q9Y243); conditions: known from literature (Barnett 2005, Lindsley 2005, Zhao 2005); cited from earlier work
Sequence of Akt3 (Q9Y243 whole entry, species assumed): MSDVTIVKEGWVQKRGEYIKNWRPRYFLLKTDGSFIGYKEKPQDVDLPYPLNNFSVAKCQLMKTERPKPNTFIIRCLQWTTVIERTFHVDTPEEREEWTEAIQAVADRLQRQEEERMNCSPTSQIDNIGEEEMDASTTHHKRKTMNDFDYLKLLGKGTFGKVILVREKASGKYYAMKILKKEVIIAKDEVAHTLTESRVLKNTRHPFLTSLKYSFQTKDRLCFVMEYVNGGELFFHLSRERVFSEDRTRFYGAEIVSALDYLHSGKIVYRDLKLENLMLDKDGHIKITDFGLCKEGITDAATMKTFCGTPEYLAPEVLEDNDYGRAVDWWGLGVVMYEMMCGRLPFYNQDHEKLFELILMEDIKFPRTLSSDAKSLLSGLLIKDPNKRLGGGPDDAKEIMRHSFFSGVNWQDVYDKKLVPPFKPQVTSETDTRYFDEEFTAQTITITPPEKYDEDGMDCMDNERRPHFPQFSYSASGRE

PANC-1 cells [1] = experiment: Cell proliferation (cell counting) after siRNA knockdown in PANC-1 cells; format: cell-based; conditions: 10 to 50 nM siRNA tested, cell number 4 days after transfection, FIG. 1
Protocol: (§1) 1×10^6 PANC-1 cells were plated on a 10 cm dish, and culturing was carried out in Roswell Park Memorial Institute 1640 (RPMI 1640, Sigma), to which 10% fetal bovine serum (Fetal bovine serum, FBS) and 5% L-glutamine were added, for 18 hours. Culturing conditions were 37° C. and 5% CO2 unless otherwise specified. Furthermore, 1×10^6 A549 cells were plated on a 10 cm dish, and culturing was carried out in Dulbecco's modified Eagle's medium (DMEM, Sigma), to which 10% FBS and 10% L-glutamine were added, for 18 hours. […]
(§2) In order to optimize the concentration of siRNA, a final concentration of 10 to 50 nM of GST-π siRNA or Akt siRNA was added to a dish containing PANC-1 cells or A549 cells flushed with 10 mL of PTI-MEM, culturing was carried out at room temperature for 5 hours, the medium was replaced (RPMI 1640 containing 5% FBS for PANC-1 cells and DMEM containing 10% FBS for A549 cells), and culturing was carried out for 2 hours. […] Subsequently, every 24 hours, the cells were detached by treatment with trypsin and harvested from the dish, and the number of cells was counted.
(§3) In order to test the effect when GST-π siRNA and Akt siRNA are made to act at the same time, a Lipofectamine/siRNA mixed solution in which GST-π siRNA and Akt siRNA were mixed was added to each of the cells in the same way as above, and the number of cells was counted. […]

PANC-1 cells [2] = experiment: Autophagy by western blot of LC3 type I/type II shift in PANC-1 cells; format: cell-based; conditions: each siRNA 10 nM, 3 days culture, FIG. 6
Protocol: 1×10^6 PANC-1 cells were plated on a 10 cm dish, and culturing was carried out in RPMI 1640, to which 10% FBS and 5% L-glutamine were added, for 24 hours. […] The cells on the dish were washed with ice-cooled PBS, and an ice-cooled Lysis buffer was then added to thus break the cells. The Lysis buffer was prepared by mixing 100 μL of NP-40 Alternative, PROTEIN GRADE® Detergent, 10% Solution, Sterile-Filtered (CALBIOCHEM), 500 μL of 1 M Tris-HCl (pH 7.5), 300 μL of 5 M NaCl, 20 μL of 0.5 M EDTA, and […] of sterile water. The cell lysate was collected using a cell scraper and ice-cooled for 30 minutes. During this process, inversion mixing was carried out every 10 minutes. The solution thus obtained was subjected to centrifugation at 15000 rpm and 4° C. for 15 minutes, and the supernatant was collected, thus giving a cell extract. This cell extract was subjected to western blot analysis. A reaction with a transfer membrane was carried out at 4° C. for 16 hours using anti-LC3B antibody (SIGMA) as a primary antibody. Detection of LC3 molecules was carried out using a chemiluminescent reagent after a reaction with HRP-labeled secondary antibody. Whether or not autophagy was induced was evaluated by a shift to LC3 type I (18 kDa) and type II (16 kDa).

PANC-1 cells [3] = experiment: Cell morphology / dead cells after siRNA knockdown in PANC-1 cells; format: cell-based; conditions: double knockdown compared with single
Protocol: 1×10^6 PANC-1 cells were plated on a 10 cm dish, and culturing was carried out in Roswell Park Memorial Institute 1640 (RPMI 1640, Sigma), to which 10% fetal bovine serum (Fetal bovine serum, FBS) and 5% L-glutamine were added, for 18 hours. Culturing conditions were 37° C. and 5% CO2 unless otherwise specified. Furthermore, 1×10^6 A549 cells were plated on a 10 cm dish, and culturing was carried out in Dulbecco's modified Eagle's medium (DMEM, Sigma), to which 10% FBS and 10% L-glutamine were added, for 18 hours. The respective media were replaced, and 2 hours later 20% to 30% confluent PANC-1 or A549 cells were transfected with GST-π siRNA and/or Akt siRNA using Lipofectamine RNAiMAX (Life Technologies).
A Lipofectamine/siRNA mixed solution for transfection was prepared as follows. First, 35 μL of Lipofectamine RNAiMAX and 965 μL of OPTI-MEM (Sigma) were mixed to thus prepare a Lipofectamine solution. […]
as §3

A549 cells = experiment: Cell proliferation (cell counting) after siRNA knockdown in A549 cells; format: cell-based; conditions: 10 to 50 nM siRNA tested, cell number 4 days after transfection, FIG. 2
Protocol: as §1, §2, §3

Sequence of Akt1 (P31749 whole entry): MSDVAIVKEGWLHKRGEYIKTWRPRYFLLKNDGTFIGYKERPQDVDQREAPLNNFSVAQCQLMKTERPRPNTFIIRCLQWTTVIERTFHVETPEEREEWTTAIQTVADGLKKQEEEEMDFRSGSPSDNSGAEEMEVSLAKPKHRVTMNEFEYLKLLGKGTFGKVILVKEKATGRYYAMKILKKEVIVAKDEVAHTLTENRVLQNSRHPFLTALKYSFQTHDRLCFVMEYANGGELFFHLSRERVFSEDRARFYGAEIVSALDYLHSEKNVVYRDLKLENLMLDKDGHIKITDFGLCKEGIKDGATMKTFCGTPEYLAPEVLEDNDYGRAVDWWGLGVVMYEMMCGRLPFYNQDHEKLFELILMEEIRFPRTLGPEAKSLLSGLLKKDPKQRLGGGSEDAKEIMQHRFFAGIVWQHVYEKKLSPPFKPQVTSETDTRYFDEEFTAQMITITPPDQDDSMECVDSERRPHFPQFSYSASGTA
Sequence of Akt2 (P31751 whole entry, species assumed): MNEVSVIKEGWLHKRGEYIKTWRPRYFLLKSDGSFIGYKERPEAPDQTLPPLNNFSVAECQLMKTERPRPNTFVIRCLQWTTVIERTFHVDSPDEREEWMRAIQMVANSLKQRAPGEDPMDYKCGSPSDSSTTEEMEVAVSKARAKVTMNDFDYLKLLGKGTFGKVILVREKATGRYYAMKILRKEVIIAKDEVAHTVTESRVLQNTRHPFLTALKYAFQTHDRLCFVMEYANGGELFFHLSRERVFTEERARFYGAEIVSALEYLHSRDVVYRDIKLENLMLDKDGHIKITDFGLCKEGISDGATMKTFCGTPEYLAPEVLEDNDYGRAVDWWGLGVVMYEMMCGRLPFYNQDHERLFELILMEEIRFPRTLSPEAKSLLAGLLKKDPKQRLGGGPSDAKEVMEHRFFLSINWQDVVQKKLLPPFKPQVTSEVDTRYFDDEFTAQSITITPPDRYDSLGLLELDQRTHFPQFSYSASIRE

Row | Compound | effect on activation and phosphorylation of Akt2 (Akt2) | effect on activation and phosphorylation of Akt1 (Akt1) | inhibition of Akt3 (Akt3) | final concentration at which the cell proliferation inhibition effect almost reaches a plateau (PANC-1 cells [1]) [nM] | autophagy (shift of LC3 type I to type II) (PANC-1 cells [2]) | dead cells (floating cells) (PANC-1 cells [3]) | final concentration at which the cell proliferation inhibition effect almost reaches a plateau (A549 cells) [nM]
1 | O=c1[nH]c2ccccc2n1C1CCN(Cc2ccc(-c3nc4cc5[nH]cnc5cc4nc3-c3ccccc3)cc2)CC1 [Akt Inhibitor VIII, 1,3-Dihydro-1-(1-((4-(6-phenyl-1H-imidazo[4,5-g]quinoxalin-7-yl)phenyl)methyl)-4-piperidinyl)-2H-benzimidazol-2-one] | selectively blocks activation and phosphorylation | selectively blocks activation and phosphorylation | does not inhibit | – | – | – | –
2 | GST-π siRNA: siRNA against GST-π; sense GGGAGGCAAGACCUUCAUUtt (SEQ ID No: 1), antisense AAUGAAGGUCUUGCCUCCCtg (SEQ ID No: 2) (sense GGGAGGCAAGACCUUCAUUTT; antisense AAUGAAGGUCUUGCCUCCCTG; chemistry not given here) | – | – | – | ~30 | autophagy induced | a large number of floating cells (dead cells) | ~30
